Starred links: 1 amine or outer side, 2 acyl side, 3 side chain; linkers in the order of their positions; H or OH if unused. Positions of bridges follow the written chain, without caps; N, C: chain ends. Non-standard residues stand in square brackets, D forms with d. Residues, ends and D or L forms follow the SMILES beside them. Groups on a side chain read outwards from the residue. *: point of attachment. Trp(1-Me) = Cn1cc(C[C@H](N)C(=O)O)c2ccccc21; C18 diacid = O=C(O)CCCCCCCCCCCCCCCCC(=O)*; C16 diacid = O=C(O)CCCCCCCCCCCCCCC(=O)*; γGlu = O=C(O)[C@H](CCC(=O)[*:2])N[*:1]; AEEA = NCCOCCOCC(=O)O; Sar = CNCC(=O)O
Key:
[1] = test system: classical complement pathway; experiment: In vitro haemolysis assay (inhibition of classical complement pathway); format: cell-based, human; conditions: human serum, sensitized sheep red blood cells; Table 3, given as upper bounds; read-out: IC50, inhibition of hemolysis
Method in brief: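 Compound dilutions preincubated 15 min at room temperature with diluted human serum (titrated per batch for 70-90% maximal haemolysis), then antibody-sensitized sheep RBC (10^7/well) added for 30 min at 37 °C in Tris/casein buffer, pH 7.4. Stopped with EDTA; haemolysis read at 405 nm; IC50 by 4PL fit.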

[2] = Solubility test at 10 mg/mL (visual inspection and light scattering); format: physicochemical; conditions: for Solubility, Condition 1: Acetate pH 4; for Solubility, Condition 2: Acetate pH 5; for Solubility, Condition 3: Phosphate pH 6; for Solubility, Condition 4: Phosphate pH 7; for Solubility, Condition 5: Phosphate pH 7.5
[3] = Pharmacokinetic half-life in non-human primates (serum, LC-MS/MS); format: in vivo, Cynomolgus monkeys (Macaca fascicularis); conditions: male, cynomolgus monkey, sc, NHP, single subcutaneous dose 1840 nmol/kg, * = approximate determination
Protocol: Healthy male Cynomolgus monkeys (Macaca fascicularis) received single subcutaneous administrations of each test substance. Compounds were formulated in 20 mM phosphate adjusted with NaOH to pH 7.5 and mannitol for isotonicity and dosed at 1840 nmol/kg. Blood was collected from a femoral vein from each animal at the following times: Pre-dose, 1, 2, 4, 8, 24, 48, 72, 96 and 120 h (10 sampling times). Blood was collected into serum separation tubes and allowed to clot at room temperature. The tubes were centrifuged and resulting serum was aliquoted and snap-frozen over dry-ice and stored at nominally −80° C. until analysis. All NHP studies were performed in accordance with animal welfare laws and regulations, including approval of the study by a local ethical review process.
In order to assess pharmacokinetic half-life (t ½), serum samples isolated from non-human primates at specific time points after dosing were analysed for total drug compound after sample preparation by solid phase extraction (SPE) and liquid chromatography mass spectrometry (LC-MS/MS) using analogue internal standard. Single measurement of serum concentrations were used for calculation of the pharmacokinetic parameters using the non-compartmental approach in Phoenix WinNonlin 6.3. Plasma terminal elimination half-life (t½) was determined as In(2)/λz where λz is the magnitude of the slope of the log linear regression of the log concentration versus time profile during the terminal phase.

Row | Compound | IC50 [1] | Solubility, Condition 1 [2] | Solubility, Condition 2 [2] | Solubility, Condition 3 [2] | Solubility, Condition 4 [2] | Solubility, Condition 5 [2] | half-life [3]
1 | CC[C@H](C)[C@@H]1NC(=O)[C@@H](NC(=O)[C@H](Cc2ccc(O)cc2)NC(=O)[C@H](C)NC(=O)[C@H](CO)NC(=O)CNC(=O)[C@H](CCC(=O)O)NC(C)=O)CSSC[C@@H](C(=O)N(C)CC(=O)N[C@@H](CCC(=O)O)C(=O)NCC(=O)N[C@@H](CCCCNC(=O)COCCOCCNC(=O)COCCOCCNC(=O)CC[C@H](NC(=O)CCCCCCCCCCCCCCC(=O)O)C(=O)O)C(N)=O)NC(=O)[C@H](CCCNC(=N)N)NC(=O)[C@H](Cc2c[nH]cn2)NC(=O)[C@H](CCC(=O)O)NC(=O)CNC(=O)[C@H](Cc2c[nH]c3ccccc23)NC(=O)[C@H](CC(=O)O)NC(=O)[C@H](CCC(N)=O)NC(=O)[C@H](Cc2cn(C)c3ccccc23)NC1=O [Compound 104] (Ac-EGSAYCI[Trp(1-Me)]QDWGEHRC[Sar]EGK([AEEA-AEEA-γGlu-C16 diacid])-NH2; disulfide 6-16) | < 100 nM | − (“−” denotes lack of solubility at the given condition, as UV absorbance at 340 nm exceeds 0.1 AU and/or it is visibly turbid or contains particles) | + (“+” denotes solubility at the given condition, as determined by UV absorbance being less than 0.1 AU at 340 nm and the sample being clear when manually inspected) | + (“+” denotes solubility at the given condition, as determined by UV absorbance being less than 0.1 AU at 340 nm and the sample being clear when manually inspected) | + (“+” denotes solubility at the given condition, as determined by UV absorbance being less than 0.1 AU at 340 nm and the sample being clear when manually inspected) | + (“+” denotes solubility at the given condition, as determined by UV absorbance being less than 0.1 AU at 340 nm and the sample being clear when manually inspected) | ~96.3 h
2 | CC[C@H](C)[C@@H]1NC(=O)[C@@H](NC(=O)[C@H](Cc2ccc(O)cc2)NC(=O)[C@H](CCC(=O)O)NC(=O)[C@H](CO)NC(C)=O)CSSC[C@@H](C(=O)N(C)CC(=O)N[C@@H](CCC(=O)O)C(=O)NCC(=O)N[C@@H](C)C(=O)N[C@@H](CCCCNC(=O)COCCOCCNC(=O)CC[C@H](NC(=O)COCCOCCNC(=O)CNC(=O)CC[C@H](NC(=O)CCCCCCCCCCCCCCCCC(=O)O)C(=O)O)C(=O)O)C(N)=O)NC(=O)[C@H](CCCNC(=N)N)NC(=O)[C@H](Cc2c[nH]cn2)NC(=O)[C@H](CCC(=O)O)NC(=O)CNC(=O)[C@H](Cc2c[nH]c3ccccc23)NC(=O)[C@H](CC(=O)O)NC(=O)[C@H](CCC(N)=O)NC(=O)[C@H](Cc2cn(C)c3ccccc23)NC1=O [Compound 118] (Ac-SEYCI[Trp(1-Me)]QDWGEHRC[Sar]EGAK([AEEA-γGlu-AEEA-Gly-γGlu-C18 diacid])-NH2; disulfide 4-14) | < 100 nM | − (“−” denotes lack of solubility at the given condition, as UV absorbance at 340 nm exceeds 0.1 AU and/or it is visibly turbid or contains particles) | + (“+” denotes solubility at the given condition, as determined by UV absorbance being less than 0.1 AU at 340 nm and the sample being clear when manually inspected) | + (“+” denotes solubility at the given condition, as determined by UV absorbance being less than 0.1 AU at 340 nm and the sample being clear when manually inspected) | + (“+” denotes solubility at the given condition, as determined by UV absorbance being less than 0.1 AU at 340 nm and the sample being clear when manually inspected) | + (“+” denotes solubility at the given condition, as determined by UV absorbance being less than 0.1 AU at 340 nm and the sample being clear when manually inspected) | ~78.7 h
3 | CC[C@H](C)[C@@H]1NC(=O)[C@@H](NC(=O)[C@H](Cc2ccc(O)cc2)NC(=O)[C@H](C)NC(=O)[C@H](CO)NC(=O)CNC(=O)[C@H](CCC(=O)O)NC(C)=O)CSSC[C@@H](C(=O)N(C)CC(=O)N[C@@H](CCC(=O)O)C(=O)N[C@@H](CCCCN)C(=O)N[C@@H](CCC(=O)N[C@@H](CCCCNC(=O)COCCOCCNC(=O)COCCOCCNC(=O)CC[C@H](NC(=O)CCCCCCCCCCCCCCCCC(=O)O)C(=O)O)C(N)=O)C(=O)O)NC(=O)[C@H](CCCNC(=N)N)NC(=O)[C@H](Cc2c[nH]cn2)NC(=O)[C@H](CCC(=O)O)NC(=O)CNC(=O)[C@H](Cc2c[nH]c3ccccc23)NC(=O)[C@H](CC(=O)O)NC(=O)[C@H](CCC(N)=O)NC(=O)[C@H](Cc2cn(C)c3ccccc23)NC1=O [Compound 111] (Ac-EGSAYCI[Trp(1-Me)]QDWGEHRC[Sar]EK[γGlu]K([AEEA-AEEA-γGlu-C18 diacid])-NH2; disulfide 6-16) | < 100 nM | − (“−” denotes lack of solubility at the given condition, as UV absorbance at 340 nm exceeds 0.1 AU and/or it is visibly turbid or contains particles) | − (“−” denotes lack of solubility at the given condition, as UV absorbance at 340 nm exceeds 0.1 AU and/or it is visibly turbid or contains particles) | + (“+” denotes solubility at the given condition, as determined by UV absorbance being less than 0.1 AU at 340 nm and the sample being clear when manually inspected) | + (“+” denotes solubility at the given condition, as determined by UV absorbance being less than 0.1 AU at 340 nm and the sample being clear when manually inspected) | + (“+” denotes solubility at the given condition, as determined by UV absorbance being less than 0.1 AU at 340 nm and the sample being clear when manually inspected) | ~157 h
4 | CC[C@H](C)[C@@H]1NC(=O)[C@@H](NC(=O)[C@H](Cc2ccc(O)cc2)NC(=O)[C@H](C)NC(=O)[C@H](CO)NC(C)=O)CSSC[C@@H](C(=O)N(C)CC(=O)N[C@@H](CCC(=O)O)C(=O)N[C@@H](CCCCNC(=O)CC[C@H](NC(=O)CNC(=O)CC[C@H](NC(=O)CCCCCCCCCCCCCCCCC(=O)O)C(=O)O)C(=O)O)C(N)=O)NC(=O)[C@H](CCCNC(=N)N)NC(=O)[C@H](Cc2c[nH]cn2)NC(=O)[C@H](CCC(=O)O)NC(=O)CNC(=O)[C@H](Cc2c[nH]c3ccccc23)NC(=O)[C@H](CC(=O)O)NC(=O)[C@H](CCC(N)=O)NC(=O)[C@H](Cc2cn(C)c3ccccc23)NC1=O [Compound 106] (Ac-SAYCI[Trp(1-Me)]QDWGEHRC[Sar]EK([γGlu-Gly-γGlu-C18 diacid])-NH2; disulfide 4-14) | < 250 nM |  |  |  |  |  | ~93.9 h

Reference: patent publication US11965039B2, “Compstatin analogues and their medical uses” (priority 2018, dated 2024)
